Bridge positions count the residues as written; N and C are the ends. Ends that are not written are not given here.
Legend:
22RV1 / PC-3 = conditions: endogenous; ref [9] (supplement list); cited from earlier work
From the text: (§1) Supplement pone.0146846.s004.docx, table 1 | column: Functional assay

TC6 = conditions: endogenous; ref [11] (supplement list); cited from earlier work
From the text: as §1

mC6A = conditions: ref [18] (supplement list); cited from earlier work
From the text: as §1

hC6A = conditions: ref [9] (supplement list); cited from earlier work
From the text: as §1

PC-3 cells = conditions: endogenous; ref [18] (supplement list); cited from earlier work
From the text: as §1

Unknown species GPRC6A = conditions: ref [11] (supplement list); cited from earlier work
From the text: as §1

GPRC6A [1] = system: GPRC6A; set-up: method as in PMID 15576628; conditions: chimera with goldfish 5.24 receptor and full length GPRC6A; ref [1]; cited from earlier work
mGPRC6A (mouse GPRC6A) = biological target: T1, mGPRC6A (mouse GPRC6A) (Mus musculus, UniProt Q8K4Z6); assay: Ca^2+i mobilisation, FlpIn-TREx-HEK293-mGPRC6A cells; assay type: cell-based
T1 sequence (Q8K4Z6 21-928): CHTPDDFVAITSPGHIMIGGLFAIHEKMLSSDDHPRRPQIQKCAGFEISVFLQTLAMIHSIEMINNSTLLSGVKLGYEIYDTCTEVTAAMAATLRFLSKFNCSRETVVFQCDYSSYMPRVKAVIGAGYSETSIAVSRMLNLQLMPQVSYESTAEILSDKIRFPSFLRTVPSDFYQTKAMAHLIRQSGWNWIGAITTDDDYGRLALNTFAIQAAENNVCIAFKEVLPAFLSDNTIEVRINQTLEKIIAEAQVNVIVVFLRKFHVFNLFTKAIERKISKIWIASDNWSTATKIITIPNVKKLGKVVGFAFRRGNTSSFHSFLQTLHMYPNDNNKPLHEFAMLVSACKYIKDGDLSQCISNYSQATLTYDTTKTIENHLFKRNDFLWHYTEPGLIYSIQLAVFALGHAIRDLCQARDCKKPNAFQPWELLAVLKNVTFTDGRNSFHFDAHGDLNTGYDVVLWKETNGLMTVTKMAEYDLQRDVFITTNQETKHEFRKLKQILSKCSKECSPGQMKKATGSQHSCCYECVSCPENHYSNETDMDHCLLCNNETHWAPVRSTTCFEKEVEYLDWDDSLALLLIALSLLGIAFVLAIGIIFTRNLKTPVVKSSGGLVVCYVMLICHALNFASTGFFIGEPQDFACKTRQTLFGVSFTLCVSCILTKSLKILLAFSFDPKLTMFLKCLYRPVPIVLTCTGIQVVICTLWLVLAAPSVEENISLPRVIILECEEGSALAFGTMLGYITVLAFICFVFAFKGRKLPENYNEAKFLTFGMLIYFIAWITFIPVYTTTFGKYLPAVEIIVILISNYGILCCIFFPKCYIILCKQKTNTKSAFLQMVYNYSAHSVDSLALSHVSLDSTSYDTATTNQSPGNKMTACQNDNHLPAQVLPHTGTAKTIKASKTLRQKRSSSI
Protocol: pcDNA 5/FRT/TO constructs were isogenically integrated into a FlpIn-TREx-HEK293 cell line (Life Technologies). FlpIn-TREx-HEK293-mGPRC6A and FlpIn-TREx-HEK293-hGPRC6A cells were then selected using 600 μg/ml hygromycin and 5 μg/ml blasticidin and grown in culture medium consisting of Dulbecco’s Modified Eagle Medium (DMEM), supplemented with 10% (v/v) foetal bovine serum (FBS) at 37°C in 5% CO2 and were sub-cultured in a 1:3 ratio every 3–4 days. Cells were cultured overnight in the presence of 1 μg/ml tetracycline to induce GPRC6A expression. […] 48 h after transfection, cells were selected using 3 μg/ml puromycin and grown as above.
FlpIn-TREx-HEK293-mGPRC6A cells were seeded into T75 flasks at 70% confluency. Cells were transfected with 15μg of plasmid DNA (Gαq or GαqG66D) with Lipofectamine LTX according to manufacturer's instructions, then incubated for 24h at 37°C in 5% CO2. Cells were plated into 96-well plates (10^5 cells/well) and equilibrated at 37°C in 5% CO2 for 4-6h to adhere, whereupon cells were serum starved overnight at 37°C in 5% CO2. For the assay, cells were washed twice in Ca^2+ assay buffer (150 mM NaCl, 2.6 mM KCl, 1.2 mM MgCl2, 10 mM dextrose, 10 mM HEPES, 2.2 mM CaCl2, 0.5% (w/v) BSA and 4 mM probenecid; pH 7.4). Buffer was then replaced with Ca^2+ assay buffer containing 1μM Fluo-4-AM and incubated for 1h at 37°C in 5% CO2. Cells were washed twice more and replaced with Ca^2+ assay buffer at 37°C. Serial dilutions of test agonists were added by injection in a Flexstation™ (Molecular Devices) and fluorescence was measured at 485nm excitation and 520nm emission wavelengths. Agonist responses were normalised to the peak of response to 100 μM ATP.
(§2) Data for all HEK293 assays represent the mean ± SEM of at least three independent experiments (except cell impedance, n = 2). For GLP-1 release, the data represent mean ± SEM of three to five independent experiments (except for OCN, wash; n = 2). For insulin release assays, data represent the mean ± SEM of three independent experiments (except for islet studies; n = 2). Insulin release data were normalised to the response to vehicle in either low or high [glucose]. Statistical analysis for GLP-1 release data were performed by one-way ANOVA, followed by Sidak’s multiple comparisons test (treating wash / no wash datasets separately). Statistical analyses for insulin release data were performed by two-way ANOVA (with [glucose] and drug treatment as group variables), followed by Sidak’s multiple comparisons test. Where only high [glucose] groups were evaluated, statistical analysis was by one-way ANOVA followed by Sidak’s multiple comparisons test.

mouse pancreatic islets = assay: Insulin release from mouse pancreatic islets; assay type: cell-based; conditions: L-arginine 20 mM; *P < 0.05 vs Vehicle; n = 2; S3 Fig B
Protocol: Islets were collagenase-isolated from mice (10 x C57Bl/6; 12–13 weeks; Charles River) and incubated overnight in RPMI (with 10% FBS (v/v), 10 mM HEPES, 100 U/ml penicillin, 100 μg/ml streptomycin, sodium pyruvate and 10 mM glucose) at 37°C in 5% CO2. Islets were seeded into a 96-well plate (4 / well) in Kreb’s buffer containing 2.8 mM glucose and washed twice with the same buffer. 200 μl test drugs were added in Kreb’s buffer with the required concentration of glucose and incubated at 37°C in 5% CO2 for 90 min. The plate was centrifuged for 10 s at 200 g, supernatant recovered and insulin levels detected as described above. This protocol was approved by the IDRS (Institut de Recherches Servier) Institutional Animal Care and Use Committee.
as §2, with “Concentration-response data were analysed using a three or four parameter logistic function (Motulsky & Christopoulos, 2004) to generate estimates of agonist potency (LogEC50). Data” for “Data”

GPRC6A [2] = conditions: HEK293 cells recombinantly expressing GPRC6A; ref [8], [10]–[12]; cited from earlier work
From the text: Additional interest in GPRC6A has emerged due to several studies reporting that it mediates the metabolic and endocrine effects of the de-carboxylated form of the osteoblast-derived peptide, osteocalcin (OCN).

STC-1 cell line = conditions: ref [22]; cited from earlier work
From the text: Given the range of OCN variants profiled, we propose that species and/or carboxylation status is unlikely to be a cause of the lack of activity in our assays. Other potential explanations are that the species of GPRC6A is critical or that HEK293 cells lack the necessary scaffolding and/or signalling proteins found in cells endogenously expressing GPRC6A. Unfortunately, human GPRC6A was not expressed at the cell surface in our cells, precluding a study of its pharmacology. However, we identified a range of immortalised murine entero-endocrine and pancreatic β-cell lines that express Gprc6a mRNA ...

Compound: N=C(N)NCCC[C@H](N)C(=O)O [L-arginine]
- PSA, Runx2 expression response (22RV1 / PC-3): pERK1/2 – response to Ca^2+, ZnCl2, OCN, Arginine, Testosterone-BSA Proliferation – response to Ca^2+, OCN PSA, Runx2 expression – response to OCN, Arg, R1881 Chemotaxis (22RV1) – response to Ca^2+, OCN
- pERK1/2 response (22RV1 / PC-3): pERK1/2 – response to Ca^2+, ZnCl2, OCN, Arginine, Testosterone-BSA Proliferation – response to Ca^2+, OCN PSA, Runx2 expression – response to OCN, Arg, R1881 Chemotaxis (22RV1) – response to Ca^2+, OCN
- pERK1/2, pPKD1 response (TC6): pERK1/2, pPKD1 – response to OCN, L-Arg
- cAMP response (mC6A): cAMP – response to Testosterone, L-Arg pERK1/2 – response to Testosterone
- pERK1/2 response (hC6A): pERK1/2 – response to Ca^2+, ZnCl2, OCN, Arginine, Testosterone-BSA
- pERK1/2 response (PC-3 cells): pERK1/2 – response to Testosterone, L-Arg
- pERK1/2 response (Unknown species GPRC6A): pERK1/2 - response to Ca^2+, L-Arg, OCN.
- agonist response of GPRC6A (GPRC6A [1]): mediates responses to L-amino acids
- EC50 (mGPRC6A (mouse GPRC6A)): 15.8 µM
- potency at murine GPRC6A (calcium and inositol phosphate, words) (mGPRC6A (mouse GPRC6A); calcium mobilisation and inositol phosphate accumulation, Discussion): most potent agonists
- rank order of potency, Ca^2+ mobilisation (mGPRC6A (mouse GPRC6A); co-expressing GαqG66D, Fig 1D): L-ornithine > L-arginine = L-lysine
- glucose-sensitive insulin secretion, L-arginine (mouse pancreatic islets): significantly increased GSIS

Compound: de-carboxylated OCN: de-carboxylated form of the osteoblast-derived peptide, osteocalcin (YLYQWLGAPVPYPDPLEPRREVCELNPDCDELADHIGFQEAYRRFYGPV; disulfide 23-29 (inferred); not fully specified; printed as YLYQWLGAPVPYPDPLEPRREVCELNPDCDELADHIGFQEAYRRFYGPV-NH2/-COOH; ends not checked; UniProt P02818 52-100, looked up)
- ERK1/2 phosphorylation (GPRC6A [2]): can stimulate cAMP accumulation or ERK1/2 phosphorylation
- cAMP accumulation (GPRC6A [2]): can stimulate cAMP accumulation or ERK1/2 phosphorylation
- GLP-1 release (STC-1 cell line): evoke GLP-1 release

From publication PMC4718634, “Murine GPRC6A Mediates Cellular Responses to L-Amino Acids, but Not Osteocalcin Variants” (PLoS ONE, 2016)
